Experimental data as given in patent publication EP0719251B1, “BICYCLO (2.2.2) OCTANE DERIVATIVES CHOLECYSTOKININ AND/OR GASTRIN ANTAGONISTS” (JAMES BLACK FOUNDATION LIMITED, priority 1993, dated 1995).

Key:
CCKB receptor = biological target: T1, CCKB receptor (Mus musculus, UniProt P56481); test: radioligand binding assay at the CCKB receptor in mouse cortical membranes; settings: [125I]-CCK8S 200pM, 150 min at 21 ± 3°C; for Ki: read-out: CCKB pKi (converted)
T1 construct: The whole brains from male mice (CD1 22-25g; Charles River) were removed; from tissue; host or cells: cerebral cortex membranes of male CD1 mice
T1 sequence (P56481 1-453): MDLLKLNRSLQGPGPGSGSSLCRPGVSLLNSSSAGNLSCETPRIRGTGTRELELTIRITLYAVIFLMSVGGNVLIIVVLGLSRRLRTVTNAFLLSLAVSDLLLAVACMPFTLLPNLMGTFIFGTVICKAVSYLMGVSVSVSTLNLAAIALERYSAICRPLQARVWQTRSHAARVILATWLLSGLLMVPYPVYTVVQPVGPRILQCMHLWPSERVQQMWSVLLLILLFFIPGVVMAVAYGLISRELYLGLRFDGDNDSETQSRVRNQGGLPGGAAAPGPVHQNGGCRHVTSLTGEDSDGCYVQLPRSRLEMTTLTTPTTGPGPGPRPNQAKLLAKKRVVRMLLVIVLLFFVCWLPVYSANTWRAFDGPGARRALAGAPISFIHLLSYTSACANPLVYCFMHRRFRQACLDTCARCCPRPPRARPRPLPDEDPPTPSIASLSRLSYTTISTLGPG
Protocol: The compounds of the examples were tested for binding at the CCKB receptor in mouse cortical membranes by means of a radioligand binding assay. The procedure was as follows:
The whole brains from male mice (CD1 22-25g; Charles River) were removed and placed in ice-cold buffer (pH7.2 @ 21 ± 3°C) of the following composition (mM); 10 HEPES, 130 NaCl, 4.7 KCl, 5 MgCl2, 1 EDTA and containing 0.25g.l^-1 bacitracin. The cortex was dissected, weighed and homogenised in 40ml ice-cold buffer using a Teflon-in-glass homogeniser. The homogenate was centrifuged at 39,800g for 20 min at 4°C, the supernatant discarded and the pellet resuspended by homogenisation in fresh buffer. The homogenate was recentrifuged (39,800g; 20 min @ 4°C) and the final pellet was resuspended in HEPES buffer to give a tissue concentration of 2mg.ml^-1(original wet weight).
The assay was terminated by rapid filtration through pre-soaked Whatman GF/B filters using a Brandell Cell harvester. The filters were washed (3 x 3ml) with ice-cold 50mM Tris-HCl (pH7.4 @ 4°C) and bound radioactivity determined by counting (1 min.) in a gamma-counter.

gastrin = biological target: T2, gastrin (Rattus norvegicus, UniProt P30553); test: gastrin antagonist activity in an immature rat stomach assay; settings: isolated immature rat stomach, cumulative pentagastrin dose-response curves, acid secretion; read-out: Gastrin pKB (converted)
T2 construct: The stomach was excised and flushed with ca. 1 ml of unbuffered physiological saline solution; from tissue; host or cells: isolated whole stomach of immature rats (33-50 g, ca. 21 days old)
T2 sequence (P30553 1-452): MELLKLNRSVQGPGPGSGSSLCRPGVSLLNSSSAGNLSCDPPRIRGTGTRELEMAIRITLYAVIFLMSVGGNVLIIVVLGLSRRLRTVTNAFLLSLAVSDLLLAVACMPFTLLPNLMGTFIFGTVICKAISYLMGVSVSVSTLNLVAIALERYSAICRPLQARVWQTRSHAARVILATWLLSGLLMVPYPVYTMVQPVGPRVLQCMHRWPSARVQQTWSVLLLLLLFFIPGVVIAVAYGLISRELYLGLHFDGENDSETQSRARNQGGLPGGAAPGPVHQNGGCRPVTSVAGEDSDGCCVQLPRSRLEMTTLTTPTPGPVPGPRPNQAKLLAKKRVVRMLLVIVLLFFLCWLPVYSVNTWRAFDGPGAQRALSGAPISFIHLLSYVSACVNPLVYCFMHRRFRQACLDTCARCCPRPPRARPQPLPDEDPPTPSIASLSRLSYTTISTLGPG
Protocol: The compounds of the examples were also tested for gastrin antagonist activity in an immature rat stomach assay. The procedure was as follows: The oesophagus of immature rats (33-50 g, ca. 21 days old) was ligated at the level of the cardiac sphincter and the duodenal sphincter was cannulated. The stomach was excised and flushed with ca. 1 ml of unbuffered physiological saline solution. The fundus was punctured and cannulated. A further 4-5 ml of unbuffered solution was flushed through the stomach to ensure the preparation was not leaking. […] The stomach was continuously perfused at a rate of 1 ml min^-1 with unbuffered solution gassed with 100% O2 with the perfusate passing over an internally referenced pH-electrode fixed 12 cm above the stomach. After 120 min of stabilisation the drugs were added directly to the serosal solution in the organ bath and after a further 60 min cumulative pentagastrin dose-response curves were started.

CCKA = biological target: T3, CCKA (Cavia porcellus, UniProt Q63931); test: CCKA binding assay in guinea-pig pancreas membranes; settings: [125I]-CCK8(S) 200pM; for CCKA pKi: containing 0.375 µM PD134,308; for Ki: containing 0.375 µM PD134,308, read-out: CCKA pKi (converted)
T3 construct: The pancreatata were removed from male guinea-pigs (200-300g; Dunkin Hartley); from tissue; host or cells: pancreas membranes of male Dunkin Hartley guinea-pigs
T3 sequence (Q63931 1-430): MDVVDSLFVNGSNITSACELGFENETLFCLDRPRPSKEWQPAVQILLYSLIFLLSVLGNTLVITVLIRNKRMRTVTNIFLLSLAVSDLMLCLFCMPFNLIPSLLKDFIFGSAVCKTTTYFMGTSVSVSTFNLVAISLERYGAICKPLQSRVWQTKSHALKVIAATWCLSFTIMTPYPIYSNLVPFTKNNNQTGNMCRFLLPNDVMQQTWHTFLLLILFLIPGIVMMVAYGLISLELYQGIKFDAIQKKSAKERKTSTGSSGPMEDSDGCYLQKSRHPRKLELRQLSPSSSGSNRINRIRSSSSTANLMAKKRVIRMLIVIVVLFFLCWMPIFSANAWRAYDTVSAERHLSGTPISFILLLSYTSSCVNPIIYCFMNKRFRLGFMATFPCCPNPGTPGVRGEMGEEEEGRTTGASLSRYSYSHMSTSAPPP
Protocol: The compounds of the examples were also tested in a CCKÅ binding assay as follows:
The pancreatata were removed from male guinea-pigs (200-300g; Dunkin Hartley) and placed in ice-cold HEPES buffer (pH 7.2 @ 21 ± 3° ). The pancreatata were homogenised in 40 ml ice-cold HEPES buffer using a polytron (Brinkmann, PT10, setting 10) 4 x 1 second.
The homogenate was centrifuged at 39,800g for 15 min at 4°. The supernatant was discarded and the pellet re-suspended using a Teflon-in-glass homogeniser in 20 volumes of fresh buffer and recentrifuged as above. The final pellet was re-suspended using a Teflon-in-glass homogeniser to a tissue concentration of 1 mg.ml^-1 (original wet weight), and filtered through 500 µm pore-size Nytex mesh.
The membranes (400µl; containing 0.375 µM PD134,308) are incubated for 150 minutes at 21 ± 3° in a final volume of 0.5ml with HEPES buffer containing [^125I]-CCK8(S) (50µl; 200pM) and competing compound. Total and non-specific binding of [^125I]-CCK8 (S) are defined using 50µl of buffer and 50µl of 100nM L-364,718 respectively. The assay is terminated by rapid filtration through pre-soaked Whatman GF/B filters using a Brandell Cell Harvester. The filters were washed (3 x 3ml) with ice-cold 50mM Tris HCl (pH 7.4 at 4° ) and bound radioactivity is determined by counting (1 min) in a gamma counter.

Row | Molecule | Ki (CCKB receptor) | Kb (gastrin) | CCKA pKi (CCKA) | Ki (CCKA) | CCKB pKi (CCKB receptor)
1 | O=C(O)c1cc(NC(=O)[C@H](Cc2ccccc2)NC(=O)C2C3c4ccccc4C(c4ccccc43)C2C(=O)NCc2cccc3ccccc23)cc(C(=O)O)c1 (single isomer, unassigned) [Example 33, cis-7-(1S-(3,5-dicarboxyphenylaminocarbonyl)-2-phenylethylaminocarbonyl)-8-(1-naphthalenemethylaminocarbonyl)-2,3,5,6-dibenzobicyclo[2.2.2]octane] | 316 nM |  |  | 1260 nM | 
2 | O=C(O)c1cc(NC(=O)[C@H](Cc2ccccc2)NC(=O)C2C3c4ccccc4C(c4ccccc43)C2C(=O)NCC2CCCCC2)cc(C(=O)O)c1 (single isomer, unassigned) [Example 30, cis-7-(1S-(3,5-dicarboxyphenylaminocarbonyl)-2-phenylethylaminocarbonyl)-8-(1-cyclohexanemethylaminocarbonyl)-2,3,5,6-dibenzobicyclo [2.2.2] octane] | 20 nM | 50.1 nM |  | 3980 nM | 
3 | cls-7-(1S-(3,5-dicarboxyphenylaminocarbonyl) -2-phenylethylaminocarbonyl) -8-(2-phenylpropylaminocarbonyl) -2,3,5,6-dibenzobicyclo[2.2.2]octane [Example 54] |  |  | 5.8 |  | 7.5
4 | O=C(O)c1cc(NC(=O)[C@H](Cc2ccccc2)NC(=O)C2C3c4ccccc4C(c4ccccc43)C2C(=O)NCCc2c[nH]c3ccccc23)cc(C(=O)O)c1 (single isomer, unassigned) [Example 50, cis-7-(1S-(3,5-dicarboxyphenylaminocarbonyl) -2-phenylethylaminocarbonyl)-8-(3-indolylethylaminocarbonyl)-2,3,5,6-dibenzobicyclo[2.2.2] octane] | 15.8 nM |  |  | 398 nM | 
5 | cis-7-(1S-(3,5-dicarboxyphenylaminocarbonyl) -2-phenylethylaminocarbonyl)-8-(2-thiophenylmethylaminocarbonyl)-2,3,5,6-dibenzobicyclo[2.2.2] octane [Example 52] |  |  | 6.8 |  | 7.3
6 | O=C(NCC12CC3CC(CC(C3)C1)C2)C1C2c3ccccc3C(c3ccccc32)C1C(=O)N[C@@H](Cc1ccccc1)C(=O)Nc1ccccc1 (single isomer, unassigned) [Example 22, cis-7-(1S-(phenylaminocarbonyl)-2-phenyl-ethylaminocarbonyl)-8-(1-adamantanemethylaminocarbonyl) -2,3,5,6-dibenzobicyclo[2.2.2]octane] | 3980 nM |  |  | 1260 nM | 
7 | O=C(O)c1cc(NC(=O)[C@H](Cc2ccccc2)NC(=O)C2C3c4ccccc4C(c4ccccc43)C2C(=O)NCCc2c[nH]c3ccccc23)cc(C(=O)O)c1 (single isomer, unassigned) [Example 51, cis-7-(1S-(3,5-dicarboxyphenylaminocarbonyl) -2-phenylethylaminocarbonyl)-8-(3-indolylethylaminocarbonyl) -2,3,5,6-dibenzobicyclo [2.2.2]octane] | 79.4 nM |  |  | 1580 nM | 
8 | O=C(O)c1ccccc1NC(=O)[C@H](Cc1ccccc1)NC(=O)C1C2c3ccccc3C(c3ccccc32)C1C(=O)NCC12CC3CC(CC(C3)C1)C2 (stereo partly drawn) [Example 45, cis-7-(1S-(2-carboxyphenylaminocarbonyl)-2-phenylethylaminocarbonyl)-8-(1-adamantane-methylaminocarbonyl) -2,3,5,6-dibenzobicyclo[2.2.2]octane] | 200 nM |  |  | 1260 nM | 

More lines, now with the values ahead:

Row | Ki (CCKB receptor) | Kb (gastrin) | CCKA pKi (CCKA) | Ki (CCKA) | CCKB pKi (CCKB receptor) | Molecule
9 | 39.8 nM | 63.1 nM | 5.6 |  |  | O=C(O)c1cc(CNC(=O)[C@H](Cc2ccccc2)NC(=O)C2C3c4ccccc4C(c4ccccc43)C2C(=O)NCC23CC4CC(CC(C4)C2)C3)cc(C(=O)O)c1 (single isomer, unassigned) [Example 62, cis-7-(1S-(3,5-dicarboxyphenylmethylaminocarbonyl)-2-phenylethylaminocarbonyl)-8-(1-adamantanemethyl-aminocarbonyl)-2,3,5,6-dibenzobicyclo[2.2 .2]octane]
10 | 2.51 nM | 39.8 nM |  | 1580 nM |  | O=C(O)c1cc(NC(=O)[C@H](Cc2ccccc2)NC(=O)C2C3c4ccccc4C(c4ccccc43)C2C(=O)NCc2ccc3ccccc3c2)cc(C(=O)O)c1 (single isomer, unassigned) [Example 63, cis-7-(1S-(3,5-dicarboxyphenylaminocarbonyl) -2-phenylethylaminocarbonyl)-8-(2-naphthalenemethylaminocarbonyl) -2,3,5,6-dibenzobicyclo[2.2.2]octane]
11 | 6.31 nM |  |  | 794 nM |  | O=C(O)c1cccc(NC(=O)[C@H](Cc2cccs2)NC(=O)C2C3c4ccccc4C(c4ccccc43)C2C(=O)NCC23CC4CC(CC(C4)C2)C3)c1 (single isomer, unassigned) [Example 55, cis-7-(1S-(3-carboxyphenylaminocarbonyl)-2-(2-thiophenyl)ethylaminocarbonyl)-8-(1-adamantanemethylaminocarbonyl)-2,3,5,6-dibenzobicyclo[2.2.2]octane]
12 | 25.1 nM |  |  | 1000 nM |  | O=C(O)c1cccc(NC(=O)[C@H](Cc2cccs2)NC(=O)C2C3c4ccccc4C(c4ccccc43)C2C(=O)NCC23CC4CC(CC(C4)C2)C3)c1 (single isomer, unassigned) [Example 56]
